From publication PMC4955735 (Anesthesiology, 2016)
“Also recorded” adds a separate entry of the source. Read-outs that look alike come from different tables or passages of the source.

How the values were obtained:
[1] = Job plot; format: physicochemical; conditions: calabadion 2•ketamine, total 1 mM, pD 7.4; establishes 1:1 complex
[2] = Job plot; format: physicochemical; conditions: calabadion 2•etomidate; establishes 1:1 complex
[3] = test system: Sprague-Dawley rats; assay: Burst suppression ratio and blood pressure during continuous etomidate infusion; format: in vivo, rat; conditions: continuous etomidate i.v.; escalating calabadion 2 infusion; returned from 83%; n=10
[4] = test system: Sprague-Dawley rats; assay: Total EEG power and blood pressure during continuous ketamine infusion; format: in vivo, rat; conditions: highest calabadion 2 dose, baseline 96 mmHg, n=10
[5] = test system: Sprague-Dawley rats; assay: Time to recovery from loss of righting reflex; format: in vivo, rat
[6] = test system: rats; assay: Balance beam test of functional mobility after anesthesia; format: in vivo, rat; conditions: n=7
[7] = test system: human white blood cells (THP-1); assay: MTS cell viability assay; format: cell-based; conditions: calabadion 2 up to 1 mM
[8] = test system: liver cells (HepG2); assay: MTS cell viability assay; format: cell-based, human; conditions: calabadion 2 up to 1 mM
[9] = test system: kidney cells (HEK293); assay: MTS cell viability assay; format: cell-based, human; conditions: calabadion 2 up to 1 mM
[10] = test system: THP-1, HepG2 and HEK293 cells; assay: Adenylate kinase release cell necrosis; format: cell-based, human; conditions: calabadion 2 up to 1 mM
[11] = test system: Swiss Webster mice; assay: Dose escalation; format: in vivo, mouse
[12] = test system: Sprague-Dawley rats; assay: Maximal tolerated dose escalation study with histopathology in rats; format: in vivo, rat
[13] = molecular target: hERG channel (Homo sapiens, UniProt Q12809); conditions: read-out: IC50, hERG channel; CHO-hERG, patch clamp, up to 25 μM
Sequence of hERG channel (Q12809 whole entry): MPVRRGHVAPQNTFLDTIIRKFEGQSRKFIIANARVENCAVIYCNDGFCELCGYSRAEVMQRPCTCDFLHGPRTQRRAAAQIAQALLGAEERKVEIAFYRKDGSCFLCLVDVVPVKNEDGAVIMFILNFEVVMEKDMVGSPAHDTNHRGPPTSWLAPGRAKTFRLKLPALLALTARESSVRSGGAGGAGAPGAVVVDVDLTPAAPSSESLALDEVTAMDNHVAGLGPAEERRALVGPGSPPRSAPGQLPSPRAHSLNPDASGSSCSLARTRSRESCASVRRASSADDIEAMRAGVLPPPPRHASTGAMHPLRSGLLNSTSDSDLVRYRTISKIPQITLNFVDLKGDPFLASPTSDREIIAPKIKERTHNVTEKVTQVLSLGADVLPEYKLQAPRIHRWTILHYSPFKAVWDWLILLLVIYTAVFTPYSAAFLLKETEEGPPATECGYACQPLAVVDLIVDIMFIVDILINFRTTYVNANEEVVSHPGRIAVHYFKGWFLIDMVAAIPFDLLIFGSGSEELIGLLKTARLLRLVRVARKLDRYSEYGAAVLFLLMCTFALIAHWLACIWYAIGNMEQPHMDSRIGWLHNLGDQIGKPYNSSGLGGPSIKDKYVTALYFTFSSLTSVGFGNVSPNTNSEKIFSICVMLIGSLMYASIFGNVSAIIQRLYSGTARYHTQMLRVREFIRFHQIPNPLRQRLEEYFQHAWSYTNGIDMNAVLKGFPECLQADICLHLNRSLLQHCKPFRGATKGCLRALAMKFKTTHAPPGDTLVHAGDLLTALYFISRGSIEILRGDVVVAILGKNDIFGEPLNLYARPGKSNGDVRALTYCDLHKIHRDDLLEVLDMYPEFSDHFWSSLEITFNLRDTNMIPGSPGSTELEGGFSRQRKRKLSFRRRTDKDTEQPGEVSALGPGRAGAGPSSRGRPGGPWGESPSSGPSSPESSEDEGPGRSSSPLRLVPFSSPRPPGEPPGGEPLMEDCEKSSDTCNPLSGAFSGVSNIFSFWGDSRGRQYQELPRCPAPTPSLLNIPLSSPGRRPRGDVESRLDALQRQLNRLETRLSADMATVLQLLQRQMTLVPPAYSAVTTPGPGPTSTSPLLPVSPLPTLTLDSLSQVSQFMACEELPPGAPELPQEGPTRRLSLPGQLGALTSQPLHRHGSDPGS

[14] = test system: S.typhimurium TA 1535; conditions: for ratio of number of colonies after treatment relative to untreated bacteria: <1.6 not mutagenic
[15] = test system: S.typhimurium TA 100; conditions: for ratio of number of colonies after treatment relative to untreated bacteria: <1.6 not mutagenic
[16] = test system: S.typhimurium TA 1537; assay: Bacteria reverse mutation assay; conditions: for ratio of number of colonies after treatment relative to untreated bacteria: <1.6 not mutagenic
[17] = test system: S.typhimurium TA 98; assay: Bacteria reverse mutation assay; conditions: for ratio of number of colonies after treatment relative to untreated bacteria: <1.6 not mutagenic
[18] = test system: S.typhimurium TA1535, TA 1537, TA 98 and TA 100; assay: Bacteria reverse mutation assay; conditions: Ames test, −/+S9

C[C@]12N3Cc4c(c(OCCCS(=O)(=O)[O-])c5ccccc5c4OCCCS(=O)(=O)[O-])CN1C(=O)N1CN4C(=O)N5CN6C(=O)N7CN8C(=O)N9Cc%10c(c(OCCCS(=O)(=O)[O-])c%11ccccc%11c%10OCCCS(=O)(=O)[O-])CN%10C(=O)N(CN%11C(=O)N(CN%12C(=O)N(CN(C3=O)[C@]12C)[C@@H]4[C@H]%125)[C@@H]6[C@H]%117)[C@]8(C)[C@@]9%10C.[Na+].[Na+].[Na+].[Na+] [Calabadion 2]
Job plot maximum (mole fraction) [1]: 0.5 | Job plot maximum (mole fraction) [2]: 0.5 | mean arterial blood pressure (MAP), % of pre-etomidate baseline [3]: 101% | MAP compared to pre-ketamine baseline [4]: ~130% | decrease of time to recovery from LORR relative to saline ([5]; etomidate-anesthetized rats): ~50% | decrease of time to recovery from LORR relative to saline ([5]; ketamine anesthetized rats): about 30% | ED50 (median dose for accelerated recovery from LORR with 50% probability) ([5]; reversal of 4 mg/kg i.v. etomidate bolus): 984 mg/kg | ED50 (median dose for accelerated recovery from LORR with 50% probability) ([5]; reversal of 30 mg/kg i.v. bolus of ketamine, 30 mg/kg): 167 mg/kg | reduction of time slope of recovery of balance vs saline ([6]; after 4 mg/kg etomidate i.v.): 4.9 min | reduction of time slope of recovery of balance vs saline ([6]; after 30 mg/kg ketamine i.v.): 3.9 min | reduction of time slope of recovery of balance vs saline ([6]; after 50 mg/kg ketamine i.m., calabadion 2 i.p.): 15.7 min | cell viability [7]: did not observe a significant reduction | cell viability [8]: did not observe a significant reduction | cell viability [9]: only a slight dip | cell lysis [10]: no cell lysis | average weight change of mice ([11]; all groups (29, 87, 145, 203 mg/kg i.p. daily for 14 days), after 28 days): ≥ 95% | tolerance in maximum tolerated dose study ([11]; mice, i.p. daily for 14 days, up to 203 mg/kg): good tolerance | tolerability at effective doses [12]: well tolerated | pathology finding, kidney ([12]; 5 of 6 animals that received the 2 highest doses, not at 1.6 g/kg): • A mild vacuolation of the epithelium in the P1 and P2 segments of the proximal convoluted tubule. | pathology finding, liver ([12]; all animals that received 3.1–5.1 g/kg, 1 animal that received 1.6 g/kg): • Mild to moderate vacuolation that is consistent with mild fat accumulation. | pathology finding, lung ([12]; animals receiving 3.1–5.1 g/kg): Mild cellular necrosis, some apparent fluid in alveolar spaces and enlarged, foamy pulmonary alveolar macrophages; also recorded: Occasional distension of pulmonary alveolar capillaries with red blood cells and in a few animals evidence of possible pulmonary emboli; also recorded: Macrophages, especially in connective tissue or adipose tissue that were distended with a bluish, hematoxylin-positive material that appeared to be localized in the lysosomes | pathology finding, heart ([12]; i.v. up to 5.1 g/kg, all doses): • Within normal limits | pathology finding, spleen ([12]; i.v. up to 5.1 g/kg, all doses): • Within normal limits | median lethal dose (LD50) ([12]; i.v., escalating doses on consecutive days, n=10): 2700 mg/kg | IC50 [13]: > 25 µM | number of colonies growing after treatment ([14]; TA 1535, +S9, 0.012 mg per plate): 10 ± 2 | number of colonies growing after treatment ([14]; TA 1535, +S9, 0.037 mg per plate): 6 ± 2 | number of colonies growing after treatment ([14]; TA 1535, +S9, 0.11 mg per plate): 7 ± 1 | number of colonies growing after treatment ([14]; TA 1535, +S9, 0.33 mg per plate): 10 ± 5 | number of colonies growing after treatment ([14]; TA 1535, +S9, 1 mg per plate): 7 ± 3 | ratio of number of colonies after treatment relative to untreated bacteria ([14]; TA 1535, +S9): 0.87 | number of colonies growing after treatment ([14]; TA 1535, −S9, 0.012 mg per plate): 6 ± 1 | number of colonies growing after treatment ([14]; TA 1535, −S9, 0.037 mg per plate): 10 ± 5 | number of colonies growing after treatment ([14]; TA 1535, −S9, 0.11 mg per plate): 8 ± 3 | number of colonies growing after treatment ([14]; TA 1535, −S9, 0.33 mg per plate): 7 ± 4 | number of colonies growing after treatment ([14]; TA 1535, −S9, 1 mg per plate): 8 ± 3 | ratio of number of colonies after treatment relative to untreated bacteria ([14]; TA 1535, −S9): 0.72 | number of colonies growing after treatment ([15]; TA 100, +S9, 0.012 mg per plate): 114 ± 2 | number of colonies growing after treatment ([15]; TA 100, +S9, 0.037 mg per plate): 112 ± 8 | number of colonies growing after treatment ([15]; TA 100, +S9, 0.11 mg per plate): 91 ± 6 | number of colonies growing after treatment ([15]; TA 100, +S9, 0.33 mg per plate): 101 ± 7 | number of colonies growing after treatment ([15]; TA 100, +S9, 1 mg per plate): 97 ± 4 | ratio of number of colonies after treatment relative to untreated bacteria ([15]; TA 100, +S9): 0.88 | number of colonies growing after treatment ([15]; TA 100, −S9, 0.012 mg per plate): 92 ± 11 | number of colonies growing after treatment ([15]; TA 100, −S9, 0.037 mg per plate): 100 ± 6 | number of colonies growing after treatment ([15]; TA 100, −S9, 0.11 mg per plate): 94 ± 4 | number of colonies growing after treatment ([15]; TA 100, −S9, 0.33 mg per plate): 105 ± 9 | number of colonies growing after treatment ([15]; TA 100, −S9, 1 mg per plate): 106 ± 6 | ratio of number of colonies after treatment relative to untreated bacteria ([15]; TA 100, −S9): 1.06 | number of colonies growing after treatment ([16]; TA 1537, +S9, 0.012 mg per plate): 2 ± 1 | number of colonies growing after treatment ([16]; TA 1537, +S9, 0.037 mg per plate): 4 ± 1 | number of colonies growing after treatment ([16]; TA 1537, +S9, 0.11 mg per plate): 6 ± 1 | number of colonies growing after treatment ([16]; TA 1537, +S9, 0.33 mg per plate): 6 ± 1 | number of colonies growing after treatment ([16]; TA 1537, +S9, 1 mg per plate): 5 ± 2 | ratio of number of colonies after treatment relative to untreated bacteria ([16]; TA 1537, +S9): 0.71 | number of colonies growing after treatment ([16]; TA 1537, −S9, 0.012 mg per plate): 7 ± 2 | number of colonies growing after treatment ([16]; TA 1537, −S9, 0.037 mg per plate): 8 ± 2 | number of colonies growing after treatment ([16]; TA 1537, −S9, 0.11 mg per plate): 7 ± 2 | number of colonies growing after treatment ([16]; TA 1537, −S9, 0.33 mg per plate): 8 ± 1 | number of colonies growing after treatment ([16]; TA 1537, −S9, 1 mg per plate): 3 ± 2 | ratio of number of colonies after treatment relative to untreated bacteria ([16]; TA 1537, −S9): 0.3 | number of colonies growing after treatment ([17]; TA 98, +S9, 0.012 mg per plate): 24 ± 4 | number of colonies growing after treatment ([17]; TA 98, +S9, 0.037 mg per plate): 27 ± 3 | number of colonies growing after treatment ([17]; TA 98, +S9, 0.11 mg per plate): 23 ± 5 | number of colonies growing after treatment ([17]; TA 98, +S9, 0.33 mg per plate): 24 ± 7 | number of colonies growing after treatment ([17]; TA 98, +S9, 1 mg per plate): 29 ± 6 | ratio of number of colonies after treatment relative to untreated bacteria ([17]; TA 98, +S9): 1.07 | number of colonies growing after treatment ([17]; TA 98, −S9, 0.012 mg per plate): 24 ± 4 | number of colonies growing after treatment ([17]; TA 98, −S9, 0.037 mg per plate): 18 ± 8 | number of colonies growing after treatment ([17]; TA 98, −S9, 0.11 mg per plate): 30 ± 10 | number of colonies growing after treatment ([17]; TA 98, −S9, 0.33 mg per plate): 21 ± 5 | number of colonies growing after treatment ([17]; TA 98, −S9, 1 mg per plate): 20 ± 5 | ratio of number of colonies after treatment relative to untreated bacteria ([17]; TA 98, −S9): 1.05 | mutagenic potential [18]: no mutagenic potential
